Measured values published in the supplement of paper PMC8837787.

The molecules below were run on Saccharomyces cerevisiae ABC16-Green Monster (assay: growth inhibition at single dose (up to 150 µM), below the 70% cut-off for dose-response; higher = more potent). Details: 18 h; 30 °C; YPD.
Outline: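 The entry is percent growth inhibition of drug-sensitive S. cerevisiae ABC16-Green Monster cells. After overnight growth in YPD at 30 °C, cells were diluted to OD600 0.1–0.2 and exposed to each library compound at 150 µM in 200 µl per well, in biological duplicates with untreated cultures beside them, and OD600 was read at 0 h and after 18 h at 30 °C. Any compound under 70% in both replicates was not carried to dose-response.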

SMILES | growth inhibition at single dose
Cc1cc(C)n(-c2ccc(NC(=O)C3(c4ccccc4)CC3)cn2)n1 | < 70%
COc1ccccc1-c1noc(-c2cc3c(s2)CCCCC3)n1 | < 70%
COc1ccc(CCN2CCC(NCc3cccc(N(C)C)c3)CC2)cc1 | < 70%
COc1ccc(/C(C#N)=C/c2ccccc2OC)cc1 | < 70%
Nc1nc(N)c2c3c(sc2n1)CN(Cc1ccccc1)CC3 | < 70%
CN(C)c1ccc(N=Cc2ccc(N3CCOCC3)cc2)cc1 | < 70%
CO[C@@H]1CN(c2ccc(C#CC3(O)CN4CCC3CC4)c(Cc3ccccc3)n2)C[C@H]1O (some centres undefined) | < 70%
CN1CCC(c2cc(-c3ccncc3)c(-c3ccc(F)cc3)[nH]2)CC1 | < 70%
CCC(C)NC(=O)c1ccc(NC(=O)C2(c3ccccc3)CCCC2)cc1 (centres undefined) | < 70%
CN(C)CCNc1nc(-c2ccco2)c2c(c1C#N)CCCC2 | < 70%
CN(C)Cc1nc(=O)c2c([nH]1)-c1ccccc1CC2(C)C | < 70%
NCCCC(N)(C(=O)O)C(F)F (centres undefined) | < 70%
O=C(Nc1cnc2ccccc2c1)c1cccc(-n2cnnn2)c1 | < 70%
CC(C)(C)c1ccc(C(=O)Nc2cc(F)ccc2F)s1 | < 70%
CC1(COc2ccc(N3CCC(Oc4ccc(OC(F)(F)F)cc4)CC3)cc2)Cn2cc([N+](=O)[O-])nc2O1 (centres undefined) | < 70%
CC1=C(C#N)C(/C=N/N(C)c2ncc(C(F)(F)F)cc2Cl)CC(=O)N1 (centres undefined) | < 70%
N#Cc1ccsc1NC(=O)CN1CCN(CC(=O)Nc2ccc(Cl)c(C(F)(F)F)c2)CC1 | < 70%
c1coc(CNc2nc(N3CCCCC3)nc3ccccc23)c1 | < 70%
O=C(Cn1ncc(Cl)c(Cl)c1=O)Nc1cc(S(=O)(=O)N2CCOCC2)ccc1Cl | < 70%
O=c1c2ccccc2cnn1-c1nc2ccccc2[nH]1 | < 70%
Cc1cc(C(=O)Cn2nnc3ccccc3c2=O)c(C)n1-c1ccccc1 | < 70%
Cc1ccc2nc(C)cc(Nc3cccc(C(F)(F)F)c3)c2c1 | < 70%
O=C(Nc1nc2ccc(OC(F)(F)F)cc2s1)c1cnccn1 | < 70%

SMILES | growth inhibition at single dose
CSC1=NC(=Nc2c(C)cccc2C)C2(CCC(C(C)(C)C)CC2)N1c1ccc(Cl)cc1 (centres undefined) | < 70%
O=C(O)C1Cc2c([nH]c3ccccc23)C(c2ccc(Cl)cc2Cl)N1 (centres undefined) | < 70%
Oc1ccccc1CN1CCC2(CCCN(Cc3ccccc3F)C2)C1 (centres undefined) | < 70%
Cc1cc(NC(=O)c2cccc(S(=O)(=O)N3c4ccccc4CC3C)c2)no1 (centres undefined) | < 70%
COc1ccc(CCNC(=O)c2cc(S(=O)(=O)N3CC(C)CC(C)C3)ccc2Sc2ccc(F)cc2)cc1OC (centres undefined) | < 70%
Cn1ncc(C#N)c1NC(=O)c1cccc(Oc2ccccc2)c1 | < 70%
Cc1cc(N(C)C)nc(Nc2ccc(NC(=O)Nc3ccccc3)cc2)n1 | < 70%
CCc1ccc(-n2nnnc2-c2cnc(N)nc2-c2ccccc2)cc1 | < 70%
CC(=O)NC(C)CCc1ccc(C(=O)Cn2ncc(Cl)c(Cl)c2=O)cc1 (centres undefined) | < 70%
COc1ccc(C2=NOC(C(N)=O)C2)cc1OC (centres undefined) | < 70%
N#Cc1nc(-c2ccccc2F)oc1NCCc1ccccc1 | < 70%
FC(F)(F)c1ccc(NCCNc2ccc(C(F)(F)F)cn2)nc1 | < 70%
O=C(NC1CCN(c2nccc(C(F)(F)F)n2)CC1)c1ccco1 | < 70%
COc1ccc(-c2cc3c(SCC(=O)Nc4cc(C(F)(F)F)ccc4Cl)nccn3n2)cc1 | < 70%
CCOc1ccc(Nc2ccnc3cc(Cl)ccc23)cc1 | < 70%
Cc1[nH]c2cc(F)cc(F)c2c(=O)c1-c1ccc(Oc2ccc(OC(F)(F)F)cc2)cc1 | < 70%
CCOc1ccc(C2N(C)c3ccccc3N2C)cc1 | < 70%
Cc1ccc(N2C3c4ccccc4N(S(=O)(=O)c4ccc(C)cc4)C2c2ccccc2N3S(=O)(=O)c2ccc(C)cc2)cc1 | < 70%
CCCCn1c(N)c(N(C)CC(=O)Nc2scc(-c3ccccc3)c2C(=O)OCC)c(=O)[nH]c1=O | < 70%
COc1cc(CN2CCC3(C=Cc4ccccc43)CC2)cc2c1OCO2 | < 70%
CCN(CC)CCNc1ncnc2c1[nH]c1ccc(Br)cc12 | < 70%
CC(C)(C)C(=O)N(CCCCCCN1C[C@H](O)[C@@H](O)[C@H](O)[C@H]1CO)C1CCCCCC1 | < 70%
CCc1ccc([C@@H]2C[C@H](C(F)(F)F)n3ncc(C(=O)NCc4ccc(OC)cc4)c3N2)cc1 | < 70%

SMILES | growth inhibition at single dose
Cc1nc2ccccn2c1C(=O)NCc1ccc(Cl)cc1 | < 70%
NC(=O)c1cc(NC(=O)c2cccs2)ccc1N1CCCCC1 | < 70%
COc1ccc(F)cc1CN(Cc1ccc(C(=O)NC2CC2)cc1)Cc1ccco1 | < 70%
Cc1cnc(NC(=O)c2ccc(C3SCCS3)cc2)s1 | < 70%
CS(=O)(=O)N1CCC(Cn2nc(Cc3cccc4ccccc34)c3c(N)ncnc32)CC1 | < 70%
CCOc1ccc2c(c1)CN(Cc1ccc(Cl)cc1)CO2 | < 70%
CCOc1ccc(-c2nc(C(=O)Nc3ncccc3O)cs2)cc1 | < 70%
CCOC(=O)c1c(C)n(-c2ccc(Cl)cc2)c2ccc(OC(=O)C=Cc3ccccc3)cc12 | < 70%
CN(Cc1ccccc1)S(=O)(=O)c1ccc(Cl)c(C(=O)Nc2nnc(C(F)(F)F)[nH]2)c1 | < 70%
CCOC(=O)c1cnc2ccc(Cl)cc2c1NCCCN(C)C | < 70%
CCOC(=O)c1[nH]c(C)c(C(=O)OCC(=O)Nc2ccc(Cl)cn2)c1C | < 70%
NC(=O)c1cc(-c2ccsc2)ccc1OCCOc1ccccc1 | < 70%
CCCn1nc(C(=O)NCCc2ccc(-n3cccn3)cc2)c2ccccc2c1=O | < 70%
CCc1nn(C)c(C(=O)NCc2ccc(Oc3ccc(C)cc3)cc2)c1Cl | < 70%
Cc1cc2ccccc2n1CC(=O)N1CC(C(=O)N2CCCCC2)Oc2ccccc21 (centres undefined) | < 70%
CC(=O)c1c(C)[nH]c(C(=O)Nc2ccc3ccccc3n2)c1C | < 70%
O=C(CCc1ccccc1)c1ccccc1OCC(O)CN1CCCCC1 (centres undefined) | < 70%
COC(=O)c1ccccc1NC(=O)/C=C/c1ccc(N2CCCS2(=O)=O)cc1 | < 70%
Cc1cc(C(=O)COc2ccc(C(N)=O)cc2)c(C)n1-c1ccc2c(c1)OCO2 | < 70%
O=C(C1CCN(c2nnc(-n3cccc3)s2)CC1)N1CCC(Cc2ccccc2)CC1 | < 70%
O=C(Nc1ccccc1O)c1ccc(Oc2cccc(C(=O)Nc3ccccc3O)c2)cc1 | < 70%
O=C(Nc1ccccc1)c1cn(-c2ccc3c(c2)OCCO3)nn1 | < 70%
CCOc1ccc2nc(C)cc(Nc3ccc(Br)cc3)c2c1 | < 70%
